In patent US9290777B2, “Putative cytokinin receptor and methods for use thereof” (NATIONAL UNIVERSITY OF SINGAPORE, priority 2007, dated 2016):
“Also recorded” adds a separate entry of the source.

System: KNAT1
Assay: qRT-PCR of cytokinin responsive gene after BA pulse, fold change vs untreated wild type
Assay type: cell-based, Arabidopsis thaliana
Experimental: For quantitative real-time PCR (qRT-PCR) analysis of cytokinin-inducible gene expression, seeds were germinated on MS medium with 3% (w/v) sucrose and grown for 6 days. Cytokinin treatment was carried out by incubating seedlings in the same MS+sucrose liquid medium (no agar) supplemented with 0, 0.01, 0.1, 1 or 5 μM [solubilized in 0.1% dimethylsulfoxide (DMSO) and diluted with the MS medium] for 5 min, 15 min, 30 min or 1 h. The control seedlings were incubated with DMSO (0.1%, the concentration used to dissolve cytokinins for the treatment) for the corresponding durations and used for expression analysis. Before RNA preparation, WT, OE and AS seedlings were pooled and stored in RNAlater solution (Qiagen, Valencia, Calif.). Total RNA was extracted using the Rneasy Plant Mini Kit (Qiagen). SYBRgreen RT-PCR reagents (Applied Biosystems) were used to synthesize double-stranded cDNA. The number of transcripts present in biological replicates each of WT, OE and AS seedlings, with or without BA and DMSO, was determined from three independent replicates. Fold induction of the transcripts was calculated according to the manufacturer's instructions (ABI Prism 7700 Sequence Detection System, User Bulletin #2).

SMILES: c1ccc(CNc2ncnc3nc[nH]c23)cc1 [benzyladenine]
- KNAT1 transcripts in OE lines compared to untreated wild type (5 μM BA, 1 h, OE lines (e.g. OE1, OE12), listed as BA): less than a two fold change; also recorded: no significant difference
- KNAT1 fold change (BA 0.01 μM, 5 min, AS1, ↑ up): 8.12↑
- KNAT1 fold change (BA 0.01 μM, 5 min, AS8, ↑ up): 9.1↑
- KNAT1 fold change (BA 0.01 μM, 5 min, AS21, ↑ up): 10.01↑
- KNAT1 fold change (BA 0.01 μM, 5 min, OE1, ↓ down): 4.01↓
- KNAT1 fold change (BA 0.01 μM, 5 min, OE12, ↓ down): 4.87↓
- KNAT1 fold change (BA 0.01 μM, 5 min, OE18, ↓ down): 6.56↓
- KNAT1 fold change (BA 0.01 μM, 5 min, Wild type, ↑ up): 2.13↑
- KNAT1 fold change (BA 0.01 μM, 15 min, AS1, ↑ up): 8.57↑
- KNAT1 fold change (BA 0.01 μM, 15 min, AS8, ↑ up): 9.21↑
- KNAT1 fold change (BA 0.01 μM, 15 min, AS21, ↑ up): 10.39↑
- KNAT1 fold change (BA 0.01 μM, 15 min, OE1, ↓ down): 3.86↓
- KNAT1 fold change (BA 0.01 μM, 15 min, OE12, ↓ down): 4.56↓
- KNAT1 fold change (BA 0.01 μM, 15 min, OE18, ↓ down): 6.32↓
- KNAT1 fold change (BA 0.01 μM, 15 min, Wild type, ↑ up): 2.67↑
- KNAT1 fold change (BA 0.01 μM, 30 min, AS1, ↑ up): 8.98↑
- KNAT1 fold change (BA 0.01 μM, 30 min, AS8, ↑ up): 9.86↑
- KNAT1 fold change (BA 0.01 μM, 30 min, AS21, ↑ up): 10.53↑
- KNAT1 fold change (BA 0.01 μM, 30 min, OE1, ↓ down): 3.41↓
- KNAT1 fold change (BA 0.01 μM, 30 min, OE12, ↓ down): 4.13↓
- KNAT1 fold change (BA 0.01 μM, 30 min, OE18, ↓ down): 6.13↓
- KNAT1 fold change (BA 0.01 μM, 30 min, Wild type, ↑ up): 2.98↑
- KNAT1 fold change (BA 0.01 μM, 1 h, AS1, ↑ up): 9.20↑
- KNAT1 fold change (BA 0.01 μM, 1 h, AS8, ↑ up): 9.98↑
- KNAT1 fold change (BA 0.01 μM, 1 h, AS21, ↑ up): 11.99↑
- KNAT1 fold change (BA 0.01 μM, 1 h, OE1, ↓ down): 3.01↓
- KNAT1 fold change (BA 0.01 μM, 1 h, OE12, ↓ down): 3.06↓
- KNAT1 fold change (BA 0.01 μM, 1 h, OE18, ↓ down): 5.98↓
- KNAT1 fold change (BA 0.01 μM, 1 h, Wild type, ↑ up): 3.15↑
- KNAT1 fold change (BA 0.1 μM, 5 min, AS1, ↑ up): 9.14↑
- KNAT1 fold change (BA 0.1 μM, 5 min, AS8, ↑ up): 10.12↑
- KNAT1 fold change (BA 0.1 μM, 5 min, AS21, ↑ up): 11.11↑
- KNAT1 fold change (BA 0.1 μM, 5 min, OE1, ↓ down): 3.56↓
- KNAT1 fold change (BA 0.1 μM, 5 min, OE12, ↓ down): 3.91↓
- KNAT1 fold change (BA 0.1 μM, 5 min, OE18, ↓ down): 5.89↓
- KNAT1 fold change (BA 0.1 μM, 5 min, Wild type, ↑ up): 3.36↑
- KNAT1 fold change (BA 0.1 μM, 15 min, AS1, ↑ up): 9.39↑
- KNAT1 fold change (BA 0.1 μM, 15 min, AS8, ↑ up): 10.32↑
- KNAT1 fold change (BA 0.1 μM, 15 min, AS21, ↑ up): 11.26↑
- KNAT1 fold change (BA 0.1 μM, 15 min, OE1, ↓ down): 3.24↓
- KNAT1 fold change (BA 0.1 μM, 15 min, OE12, ↓ down): 3.71↓
- KNAT1 fold change (BA 0.1 μM, 15 min, OE18, ↓ down): 5.72↓
- KNAT1 fold change (BA 0.1 μM, 15 min, Wild type, ↑ up): 3.58↑
- KNAT1 fold change (BA 0.1 μM, 30 min, AS1, ↑ up): 9.69↑
- KNAT1 fold change (BA 0.1 μM, 30 min, AS8, ↑ up): 10.57↑
- KNAT1 fold change (BA 0.1 μM, 30 min, AS21, ↑ up): 11.48↑
- KNAT1 fold change (BA 0.1 μM, 30 min, OE1, ↓ down): 3.12↓
- KNAT1 fold change (BA 0.1 μM, 30 min, OE12, ↓ down): 3.59↓
- KNAT1 fold change (BA 0.1 μM, 30 min, OE18, ↓ down): 5.36↓
- KNAT1 fold change (BA 0.1 μM, 30 min, Wild type, ↑ up): 3.89↑
- KNAT1 fold change (BA 0.1 μM, 1 h, AS1, ↑ up): 9.98↑
- KNAT1 fold change (BA 0.1 μM, 1 h, AS8, ↑ up): 10.99↑
- KNAT1 fold change (BA 0.1 μM, 1 h, AS21, ↑ up): 11.83↑
- KNAT1 fold change (BA 0.1 μM, 1 h, OE1, ↓ down): 2.96↓
- KNAT1 fold change (BA 0.1 μM, 1 h, OE12, ↓ down): 3.21↓
- KNAT1 fold change (BA 0.1 μM, 1 h, OE18, ↓ down): 5.01↓
- KNAT1 fold change (BA 0.1 μM, 1 h, Wild type, ↑ up): 3.99↑
- KNAT1 fold change (BA 1.0 μM, 5 min, AS1, ↑ up): 10.43↑
- KNAT1 fold change (BA 1.0 μM, 5 min, AS8, ↑ up): 11.01↑
- KNAT1 fold change (BA 1.0 μM, 5 min, AS21, ↑ up): 11.93↑
- KNAT1 fold change (BA 1.0 μM, 5 min, OE1, ↓ down): 2.76↓
- KNAT1 fold change (BA 1.0 μM, 5 min, OE12, ↓ down): 3.19↓
- KNAT1 fold change (BA 1.0 μM, 5 min, OE18, ↓ down): 4.36↓
- KNAT1 fold change (BA 1.0 μM, 5 min, Wild type, ↑ up): 4.1↑
- KNAT1 fold change (BA 1.0 μM, 15 min, AS1, ↑ up): 10.68↑
- KNAT1 fold change (BA 1.0 μM, 15 min, AS8, ↑ up): 11.43↑
- KNAT1 fold change (BA 1.0 μM, 15 min, AS21, ↑ up): 12.02↑
- KNAT1 fold change (BA 1.0 μM, 15 min, OE1, ↓ down): 2.51↓
- KNAT1 fold change (BA 1.0 μM, 15 min, OE12, ↓ down): 3.01↓
- KNAT1 fold change (BA 1.0 μM, 15 min, OE18, ↓ down): 4.21↓
- KNAT1 fold change (BA 1.0 μM, 15 min, Wild type, ↑ up): 4.31↑
- KNAT1 fold change (BA 1.0 μM, 30 min, AS1, ↑ up): 10.73↑
- KNAT1 fold change (BA 1.0 μM, 30 min, AS8, ↑ up): 11.69↑
- KNAT1 fold change (BA 1.0 μM, 30 min, AS21, ↑ up): 12.35↑
- KNAT1 fold change (BA 1.0 μM, 30 min, OE1, ↓ down): 2.29↓
- KNAT1 fold change (BA 1.0 μM, 30 min, OE12, ↓ down): 2.89↓
- KNAT1 fold change (BA 1.0 μM, 30 min, OE18, ↓ down): 4.01↓
- KNAT1 fold change (BA 1.0 μM, 30 min, Wild type, ↑ up): 4.59↑
- KNAT1 fold change (BA 1.0 μM, 1 h, AS1, ↑ up): 11.01↑
- KNAT1 fold change (BA 1.0 μM, 1 h, AS8, ↑ up): 11.93↑
- KNAT1 fold change (BA 1.0 μM, 1 h, AS21, ↑ up): 12.76↑
- KNAT1 fold change (BA 1.0 μM, 1 h, OE1, ↓ down): 2.01↓
- KNAT1 fold change (BA 1.0 μM, 1 h, OE12, ↓ down): 2.16↓
- KNAT1 fold change (BA 1.0 μM, 1 h, OE18, ↓ down): 3.92↓
- KNAT1 fold change (BA 1.0 μM, 1 h, Wild type, ↑ up): 4.87↑
- KNAT1 fold change (BA 5.0 μM, 5 min, AS1, ↑ up): 10.98↑
- KNAT1 fold change (BA 5.0 μM, 5 min, AS8, ↑ up): 11.98↑
- KNAT1 fold change (BA 5.0 μM, 5 min, AS21, ↑ up): 12.43↑
- KNAT1 fold change (BA 5.0 μM, 5 min, OE1, ↓ down): 2.19↓
- KNAT1 fold change (BA 5.0 μM, 5 min, OE12, ↓ down): 2.87↓
- KNAT1 fold change (BA 5.0 μM, 5 min, OE18, ↓ down): 3.45↓
- KNAT1 fold change (BA 5.0 μM, 5 min, Wild type, ↑ up): 5.52↑
- KNAT1 fold change (BA 5.0 μM, 15 min, AS1, ↑ up): 11.01↑
- KNAT1 fold change (BA 5.0 μM, 15 min, AS8, ↑ up): 12.07↑
- KNAT1 fold change (BA 5.0 μM, 15 min, AS21, ↑ up): 12.54↑
- KNAT1 fold change (BA 5.0 μM, 15 min, OE1, ↓ down): 2.01↓
- KNAT1 fold change (BA 5.0 μM, 15 min, OE12, ↓ down): 2.62↓
- KNAT1 fold change (BA 5.0 μM, 15 min, OE18, ↓ down): 3.18↓
- KNAT1 fold change (BA 5.0 μM, 15 min, Wild type, ↑ up): 5.69↑
- KNAT1 fold change (BA 5.0 μM, 30 min, AS1, ↑ up): 11.23↑
- KNAT1 fold change (BA 5.0 μM, 30 min, Wild type, ↑ up): 5.89↑
- KNAT1 transcripts, dose dependence (BA 0.01-5 μM pulse, 5 min-1 h): dose-dependent increase
